“Also recorded” adds a separate entry of the source.
Tests used:
[1] = tested on: NCI-H2030; experiment: Cell proliferation assay (CellTiter-Glo), drug combination synergy by Bliss and ZIP models, NCI-H2030; type: cell-based; details: combination of compound 1 with KRAS G12C inhibitor (MRTX849, AMG510, ARS-1620 or JDQ-443); for synergy (anti-proliferation effects): NCI-H2030, SMARCA4 low/KRAS G12C, day 7; for Bliss synergy score / ZIP synergy score: NCI-H2030, synergistic effect likely where scores larger than 10
Procedure: FIG. 2. […] Lung cancer NCI-H2030 cells (SMARAC4 low/KRAS G12C) were treated with KRAS G12C inhibitor (MRTX849, AMG510, ARS1629 or JDQ-443) and with a SMARCA2 degrader (compound 1) in a different dose-range. Cell viability was analyzed on day 7 using Cell-titer Glo.
FIG. 5. Bliss and ZIP synergy scores of H2030 cells treated with a SMARCA2 degrader (compound 1) and a KRAS targeting therapy (MRTX849, AMG510, ARS1629 or JDQ443). Synergistic effect is likely where synergy scores are larger than 10.
(§1) The degree of combination synergy, or antagonism, is quantified by comparing the observed drug combination response against the expected response, calculated using a reference model that assumes no interaction between drugs. Drug synergy was determined using the Bliss and Zero interaction potency (ZIP) reference models.
(§2) The Bliss independence model assumes a stochastic process in which two drugs elicit their effects independently, and the expected combination effect can be calculated based on the probability of independent events; The ZIP model captures the drug interaction relationships by comparing the change in the potency (effect at certain dose level) of the dose-response curves between individual drugs and their combinations. ZIP assumes that two non-interacting drugs are expected to incur minimal changes in their dose-response curves. Model calculations can be found at www.ncbi.nlm.nih.gov/pmc/articles/PMC4759128/.
(§3) Cell proliferation assay: Cells were plated in 384-well white-walled, clear-bottom plates in standard tissue culture conditions. 250 cells per well of the NCI-H2030 (ATCC, CRL-5914) cell line was seeded in RPMI-1640 medium, FBS serum to a final concentration of 10%, 100 cells per well of the UM-UC-3 (ATCC, CRL-1749) cell line was seeded in EMEM medium, FBS serum to a final concentration of 10%. The day after plating, serial dilutions of two compounds were plated in dose-response matrices in quadruplicate, including DMSO controls, using a Tecan D300e Digital Dispenser (Tecan Group Ltd. Männedorf, Switzerland). All wells were normalized to highest total volume of DMSO. 7 days later the CellTiter-Glo® 2.0 Cell Viability Assay (CTG) (#G9242, Promega, Madison, WI) was used to measure cell viability effects of drug combinations. The expected drug combination responses were calculated based on Bliss and ZIP reference model using SynergyFinder (Ianevski et al, 2020). Deviations between observed and expected responses with positive and negative values denote synergy and antagonism respectively. Synergistic effect is likely where synergy scores are larger than 10. MRTX849 (Adagrasib, Catalog No. S8884) and ARS-1620 (Catalog No. S8707) were purchased from Selleck Chemicals. AMG510 (Sotorasib, Catalog No. HY-114277) and JDQ-443 (Catalog No. HY-139612) were purchased from MedChemExpress.
NCI-H2030 is a non-small cell lung cancer cell line that express low SMARCA4 and KRAS G12C mutation. Combination therapy was applied to H2030 cells and % viable cells was calculated (see FIG. 2). Bliss and ZIP scores are larger than 10, which indicates compound 1 and KRAS G12C inhibitors will likely show synergistic effects (FIG. 5).

[2] = tested on: UM-UC-3; experiment: Cell proliferation assay (CellTiter-Glo), drug combination synergy by Bliss and ZIP models, UM-UC-3; type: cell-based, human; details: for synergy (anti-proliferation effects): combination of compound 1 with KRAS G12C inhibitor (MRTX849, AMG510, ARS1629 or JDQ443), UM-UC-3, SMARCA4 damaging mutation/KRAS G12C, day 7
Procedure: FIG. 3. […] Bladder cancer UM-UC-3 cells (SMARAC4 damaging mutation/KRAS G12C) were treated with KRAS G12C inhibitor (MRTX849, AMG510, ARS1629 or JDQ443) and with a SMARCA2 degrader (compound 1) in a different dose-range. Cell viability was analyzed on day 7 using Cell-titer Glo.
FIG. 6. Bliss and ZIP synergy scores of UM-UC-3 cells treated with a SMARCA2 degrader (compound 1) and a KRAS targeting therapy (MRTX849, AMG510, ARS1629 or JDQ443). Synergistic effect is likely where synergy scores are larger than 10.
as §1, §2, §3
UC-UM-3 is a human bladder transitional cell carcinoma cancer cell line that expresses SMARCA4 damaging mutation and KRAS G12C mutation. Combination therapy was applied to UM-UC-3 cells and % viable cells was calculated (FIG. 3). Bliss and ZIP scores are larger than 10, which indicates compound 1 and KRAS G12C inhibitors will likely show synergistic effects (FIG. 6).

[3] = tested on: NCI-H838 cells; experiment: Cell viability (Cell-titer Glo), drug combination, control line NCI-H838; type: cell-based; details: combination of compound 1 with KRAS G12C inhibitor (MRTX849 or AMG510); NCI-H838, SMARCA4 damaging mutation/KRAS WT; day 7
Procedure: (§4) FIG. 4. […] Lung cancer NCI-H838 cells (SMARAC4 damaging mutation/KRAS WT) or NCI-H358 cells (SMARCA4 WT/KRAS G12C) were treated with KRAS G12C inhibitor (MRTX849 or AMG510) and with a SMARCA2 degrader (compound 1) in a different dose-range. Cell viability was analyzed on day 7 using Cell-titer Glo.
as §3, with “Synergistic effect is likely where synergy scores are larger than 10. MRTX849 (Adagrasib, Catalog No. S8884) and ARS-1620 (Catalog No. S8707) were purchased from Selleck Chemicals. AMG510 (Sotorasib, Catalog No. HY-114277) and JDQ-443 (Catalog No. HY-139612) were purchased from MedChemExpress.” left out

[4] = tested on: UM-UC-3 xenograft tumors; experiment: Tumor volume in mice with UM-UC-3 xenograft tumors; type: in vivo; details: for tumor volume reduction (synergy): combination: compound 1 100 mg/kg s.c. Q3D and MRTX849 10 mg/kg p.o. QD, UM-UC-3
Procedure: FIG. 7. Plot of mean tumor volume vs. dosing time for UM-UC-3 cells treated with a SMARCA2 degrader (compound 1) and a KRAS targeting therapy (MRTX849).
(§5) The concentration of compound 1 was 100 mg/kg s.c. Q3D and the concentration of MRTX849 was 10 mg/kg p.o. QD. Statistical analysis used the two-tailed Mann-Whitney test versus vehicle, with *P<0.05, **P<0.01 and ***P<0.001.

[5] = tested on: H2030 xenograft tumors; experiment: Tumor volume in mice with H2030 xenograft tumors; type: in vivo; details: for tumor volume reduction (synergy): combination: compound 1 100 mg/kg s.c. Q3D and MRTX849 10 mg/kg p.o. QD, H2030
Procedure: FIG. 8. Plot of mean tumor volume vs. dosing time for H2030 cells treated with a SMARCA2 degrader (compound 1) and a KRAS targeting therapy (MRTX849).
as §5

[6] = tested on: NCI-H358 cells; experiment: Cell viability (Cell-titer Glo), drug combination, control line NCI-H358; type: cell-based; details: combination of compound 1 with KRAS G12C inhibitor (MRTX849 or AMG510); NCI-H358, SMARCA4 WT/KRAS G12C; day 7
Procedure: as §4
as §3, with “Synergistic effect is likely where synergy scores are larger than 10. MRTX849 (Adagrasib, Catalog No. S8884) and ARS-1620 (Catalog No. S8707) were purchased from Selleck Chemicals. AMG510 (Sotorasib, Catalog No. HY-114277) and JDQ-443 (Catalog No. HY-139612) were purchased from MedChemExpress.” left out

[7] = combination of compound 1 with KRAS G12C inhibitors, UM-UC-3, synergistic effect likely where scores larger than 10

| SMILES | synergy (anti-proliferation effects) [1] | Bliss synergy score [1] | ZIP synergy score [1] | synergy (anti-proliferation effects) [2] | synergy (anti-proliferation effects) ([1]; listed as ARS1629) | synergistic effects (cell viability) [3] | enlargement of tumor volumes ([4]; combination of compound 1 and a KRAS targeting therapy, mice with UM-UC-3 xenograft tumors) | tumor volume reduction (synergy) [4] | enlargement of tumor volumes ([5]; combination of compound 1 and a KRAS targeting therapy, mice with H2030 xenograft tumors) | tumor volume reduction (synergy) [5] | Bliss synergy score [2, 7] | ZIP synergy score [2, 7] | synergistic effects (cell viability) [6] |
| --- | --- | --- | --- | --- | --- | --- | --- | --- | --- | --- | --- | --- | --- |
| C=CC(=O)N1CCN(c2nc(=O)n(-c3c(C)ccnc3C(C)C)c3nc(-c4c(O)cccc4F)c(F)cc23)[C@@H](C)C1 (atropisomer, axis not shown) [JDQ-443] | synergistic anti-proliferation effects; also recorded: Excellent synergy | > 10 | > 10 | synergistic anti-proliferation effects |  |  |  |  |  |  |  |  |  |
| C=CC(=O)N1CCN(c2ncnc3c(F)c(-c4c(O)cccc4F)c(Cl)cc23)CC1 [ARS-1620] | Excellent synergy | > 10 | > 10 | synergistic anti-proliferation effects | synergistic anti-proliferation effects |  |  |  |  |  |  |  |  |
| Cc1ncsc1-c1ccc([C@H](C)NC(=O)[C@@H]2C[C@@H](O)CN2C(=O)[C@@H](c2cc(O[C@@H](C)CN3CC[C@@H](N4CCN5c6cc(-c7ccccc7O)nnc6NC[C@H]5C4)C3)no2)C(C)C)cc1 [Compound 1] | synergistic anti-proliferation effects; also recorded: Excellent synergy; also recorded: potent synergistic interaction | > 10 | > 10 | synergistic anti-proliferation effects; also recorded: Excellent synergy; also recorded: potent synergistic interaction |  | do not show synergistic effects | can slow down the enlargement of tumor volumes | synergistic effects for tumor volume reduction | can slow down the enlargement of tumor volumes | synergistic effects for tumor volume reduction | > 10 | > 10 | do not show synergistic effects |
| C=C(F)C(=O)N1CCN(c2nc(OC[C@@H]3CCCN3C)nc3c2CCN(c2cccc4cccc(Cl)c24)C3)C[C@@H]1CC#N [MRTX849, adagrasib] | synergistic anti-proliferation effects; also recorded: Excellent synergy | > 10 | > 10 | synergistic anti-proliferation effects |  | do not show synergistic effects |  | synergistic effects for tumor volume reduction |  | synergistic effects for tumor volume reduction |  |  | do not show synergistic effects |

From patent publication US20260373123A1, “IMPROVED TREATMENT OF CANCERS USING COMBINATIONS OF SMARCA2 DEGRADERS AND KRAS TARGETING THERAPIES” (Prelude Therapeutics Incorporated, priority 2022, published 2026)
